This passage reports IC50 and MIC results from ChEMBL document CHEMBL1921696, “Synthesis and biological evaluation of salicylate-based compounds as a novel class of methionine aminopeptidase inhibitors” (Bioorg Med Chem Lett, 2011).

One assay has as its system Escherichia coli. As to the kind of experiment: Antibacterial activity against Escherichia coli AS19 after 10 hrs by fluorescence assay. In kind it is functional, organism-based. As to conditions: AS19, 10 h.
A short description of assay [1]: Inhibition of Escherichia coli recombinant methionine aminopeptidase expressed in Escherichia coli BL21 (DE3) using MetAMC as substrate in presence of Mn(II).
Assay [2] in a line: Inhibition of Escherichia coli recombinant methionine aminopeptidase expressed in Escherichia coli BL21 (DE3) using MetAMC as substrate in presence of Co(II).
Assay [3] in a line: Inhibition of Escherichia coli recombinant methionine aminopeptidase expressed in Escherichia coli BL21 (DE3) using MetAMC as substrate in presence of Fe(II).

Broadly, the pIC50 is the IC50 on a negative log10 scale, so that one unit is a factor of ten. By MIC is commonly meant the smallest concentration in the dilution series that meets the test's criterion for growth inhibition.

pIC50: −log10 of the molar value. Values after ≈ are worked out from the molar mass of the structure shown.

On to `O=C(O)c1ccc(-c2cccs2)cc1O`, for which the pIC50 is 3.95 in the assay on Escherichia coli, 4.10 in assay [1], 4.19 in assay [2] and 4.41 in assay [3]. This molecule displayed an MIC against Escherichia coli of 100 µg/mL (≈ 454 µM).

Regarding `Cc1ccc(-c2ccc(C(=O)O)c(O)c2)s1`, the pIC50 was 4.14 in the assay on Escherichia coli, 4.04 in assay [1], 4.09 in assay [2] and 3.96 in assay [3]. The molecule further gave an MIC in the assay with Escherichia coli of 47 µg/mL (≈ 201 µM).

`O=C(O)c1ccc(-c2ccc(Cl)s2)cc1O`: the pIC50 is 4.47 in the assay with Escherichia coli, 4.20 in assay [1], 4.06 in assay [2] and 4.14 in assay [3]. In addition, in the assay on Escherichia coli, the MIC amounted to 28 µg/mL (≈ 110 µM).

On to `COc1cc(-c2cccs2)ccc1C(=O)O`, for which the pIC50 in the assay on Escherichia coli is < 3.00; in assay [1], 4.05; in assay [2], 3.60; in assay [3], 3.30. Moreover, the MIC against Escherichia coli was > 234 µg/mL.

For `COc1cc(-c2ccc(C)s2)ccc1C(=O)O`, the pIC50 was 3.26 in the assay with Escherichia coli, 3.80 in assay [1], 3.59 in assay [2] and 3.57 in assay [3]. Moreover, in the assay on Escherichia coli, the MIC stood at 272 µg/mL (≈ 1100 µM).

With `O=C(O)c1ccc(-c2cccs2)cc1`, the pIC50 is < 3.00 with Escherichia coli, 3.80 in assay [1], 3.60 in assay [2] and < 3.30 in assay [3]. Also, the MIC against Escherichia coli is > 204 µg/mL.

On to `O=C(O)c1ccc(-c2cccs2)c(F)c1`, for which the negative-log IC50 (pIC50) in the assay with Escherichia coli was < 3.00; in assay [1], 3.84; in assay [2], 3.60; in assay [3] it was 3.57. In addition, the minimum inhibitory concentration (MIC) with Escherichia coli was > 222 µg/mL.

As to `Cc1ccc(-c2ccc(C(=O)O)cc2F)s1`, the pIC50 in the assay with Escherichia coli was 3.06; in assay [1], 3.47; in assay [2], 3.48; in assay [3], 3.60. In the assay on Escherichia coli, this molecule showed an MIC of 306 µg/mL (≈ 1300 µM).

Consider `O=C(O)c1ccc(-c2ccc(Cl)s2)c(F)c1`, for which the pIC50 with Escherichia coli is 3.19; in assay [1], 3.93; in assay [2], 3.78; in assay [3], 3.69. The MIC against Escherichia coli turned out to be 297 µg/mL (≈ 1160 µM).

On to `O=C(O)c1ccc(-c2cc(Cl)sc2Cl)cc1O`, for which the negative-log IC50 (pIC50) was 4.29 in the assay with Escherichia coli, 4.01 in assay [1], 3.93 in assay [2] and 4.52 in assay [3]. Further, the lowest concentration to inhibit growth in the assay with Escherichia coli (MIC) was 33 µg/mL (≈ 114 µM).

In the case of `COc1cc(-c2cc(Cl)sc2Cl)ccc1C(=O)O`, the pIC50 in the assay on Escherichia coli is 3.08; in assay [1] it was 4.01; in assay [2] it was 3.54; in assay [3], < 3.30. The molecule also yielded an MIC against Escherichia coli of 521 µg/mL (≈ 1720 µM).

Regarding `O=C(O)c1cc(-c2cccs2)c(Cl)cc1O`, the negative logarithm of the IC50 (pIC50) in the assay on Escherichia coli is 4.13; in assay [1], 4.47; in assay [2] it was 4.06; in assay [3], 5.51. Moreover, the lowest concentration to inhibit growth against Escherichia coli (MIC) was 38 µg/mL (≈ 149 µM).

In the case of `Cc1ccc(-c2cc(C(=O)O)c(O)cc2Cl)s1`, the pIC50 was 3.79 in the assay with Escherichia coli, 4.42 in assay [1], 4.11 in assay [2] and 5.17 in assay [3]. In the assay on Escherichia coli, inhibition of growth (MIC) required 87 µg/mL (≈ 324 µM).

On to `O=C(O)c1cc(-c2ccc(Cl)s2)c(Cl)cc1O`, for which the pIC50 in the assay on Escherichia coli was 4.31; in assay [1] it was 4.44; in assay [2], 4.13; in assay [3] it was 5.31. Moreover, the MIC against Escherichia coli was determined as 30 µg/mL (≈ 104 µM).

In the case of `COc1cc(Cl)c(-c2cccs2)cc1C(=O)O`, the pIC50 is < 3.00 in the assay with Escherichia coli, 4.72 in assay [1], 3.69 in assay [2] and 3.68 in assay [3]. Further, the MIC in the assay with Escherichia coli is > 268 µg/mL.

In the case of `COc1cc(Cl)c(-c2ccc(C)s2)cc1C(=O)O`, the pIC50 with Escherichia coli is < 3.00; in assay [1], 4.94; in assay [2], 4.15; in assay [3] it was 3.97. The minimum inhibitory concentration (MIC) with Escherichia coli is > 282 µg/mL.

For `COc1ccc(C(=O)O)cc1-c1cccs1`, the pIC50 with Escherichia coli is < 3.00; in assay [1], 4.76; in assay [2], < 3.30; in assay [3] it was 3.72. Moreover, the MIC in the assay with Escherichia coli is > 234 µg/mL.

For `COc1ccc(C(=O)O)cc1-c1ccc(C)s1`, the pIC50 with Escherichia coli was < 3.00; in assay [1], 4.47; in assay [2], 3.33; in assay [3], 3.78. The MIC with Escherichia coli is > 248 µg/mL.
